pKi: −log10 of the molar value.
biological target: T1, human GR (Homo sapiens, UniProt P04150); experiment: Trans-Activation Modulation of Glucocorticoid Receptor (GRAMMER), MMTV-LUC reporter gene; format: cell-based; parameters: endogenous in cells; details: Table 1, Emax relative to 300 nM dexamethasone
T1 sequence (P04150 1-777): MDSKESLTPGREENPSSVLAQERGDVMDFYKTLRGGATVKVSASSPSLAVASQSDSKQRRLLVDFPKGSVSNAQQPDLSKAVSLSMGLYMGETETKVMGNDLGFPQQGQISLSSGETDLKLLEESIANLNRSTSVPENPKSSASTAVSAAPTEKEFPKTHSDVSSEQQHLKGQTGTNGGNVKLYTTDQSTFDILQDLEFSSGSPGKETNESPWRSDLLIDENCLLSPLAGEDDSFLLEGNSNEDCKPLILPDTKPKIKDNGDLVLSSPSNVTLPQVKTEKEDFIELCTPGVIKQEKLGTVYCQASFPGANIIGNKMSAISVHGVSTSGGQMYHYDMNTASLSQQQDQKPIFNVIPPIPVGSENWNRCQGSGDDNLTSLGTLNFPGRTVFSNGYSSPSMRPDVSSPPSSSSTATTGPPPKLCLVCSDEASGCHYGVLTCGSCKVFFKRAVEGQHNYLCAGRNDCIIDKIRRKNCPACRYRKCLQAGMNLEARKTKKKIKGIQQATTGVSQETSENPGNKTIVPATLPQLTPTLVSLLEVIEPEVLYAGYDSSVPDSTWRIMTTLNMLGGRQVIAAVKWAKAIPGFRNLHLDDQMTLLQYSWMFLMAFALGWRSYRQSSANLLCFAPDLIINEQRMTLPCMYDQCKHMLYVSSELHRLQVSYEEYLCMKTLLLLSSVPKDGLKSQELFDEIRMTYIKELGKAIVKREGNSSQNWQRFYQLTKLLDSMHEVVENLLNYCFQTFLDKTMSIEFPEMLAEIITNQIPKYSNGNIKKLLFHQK

In the case of `C[C@]12Cc3cnn(-c4ccc(F)cc4)c3C=C1CC[C@@]2(O)/C=C/c1ccccc1S(N)(=O)=O` [Example 160, 2-{(E)-2-[(4αS,5R)-1-(4-fluorophenyl)-5-hydroxy-4α-methyl-1,4,4α,5,6,7-hexahydrocyclopenta[f]indazol-5-yl]vinyl}benzenesulfonamide], the “Transactivation A549 Cells GRAMMER Emax (%)” value was 30%.

biological target: T2, glucocorticoid receptor (GR) (Homo sapiens, UniProt P04150); experiment: Ligand binding assay (GR BIND), 3H-dexamethasone displacement, HeLa cell lysate; details: Table 1; HeLa cell lysate, 3H-DEX
T2 construct: endogenous in cells; host or cells: HeLa (ATCC) cell lysate supernatant
T2 sequence (P04150 1-777): T1 sequence (P04150 1-777)
Outline: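 HeLa cell lysate supernatant in TEGM (pH 7.2, molybdate) incubated overnight at 4 °C with 3H-dexamethasone trace (6 nM stock) and serially diluted compound, 2% EtOH final. Bound receptor captured on hydroxylapatite, filtered and counted by scintillation; IC50 calculated with dexamethasone as reference.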

`C[C@]12Cc3cnn(-c4ccc(F)cc4)c3C=C1CC[C@@]2(O)CCc1cccc(F)c1[C@H](N)C(F)(F)F` [Example 151, (4αS,5R)-5-(2-{2-[(1S)-1-amino-2,2,2-trifluoroethyl]-3-fluorophenyl}ethyl)-1-(4-fluorophenyl)-4α-methyl-1,4,4α,5,6,7-hexahydrocyclopenta[f]indazol-5-ol] and `C[C@]12Cc3cnn(-c4ccc(F)cc4)c3C=C1CC[C@@]2(O)CCc1cccc(F)c1[C@@H](N)C(F)(F)F` [Example 152, (4αS,5R)-5-(2-{2-[(1R)-1-amino-2,2,2-trifluoroethyl]-3-fluorophenyl}ethyl)-1-(4-fluorophenyl)-4α-methyl-1,4,4α,5,6,7-hexahydrocyclopenta[f]indazol-5-ol] are within 0.2 log units of each other in pKi: 8.76 for the first, 8.59 for the second.

First: C[C@]12Cc3cnn(-c4ccc(F)cc4)c3C=C1CC[C@@]2(O)CCc1ccccc1C(=O)N1CC(=O)C1 [Example 156, 1-(2-{2-[(4αS,5R)-1-(4-fluorophenyl)-5-hydroxy-4α-methyl-1,4,4α,5,6,7-hexahydrocyclopenta[f]indazol-5-yl]ethyl}benzoyl)azetidin-3-one]
Second: CC(=O)Cc1ccccc1CC[C@]1(O)CCC2=Cc3c(cnn3-c3ccc(F)cc3)C[C@@]21C [Example 157, 1-(2-{2-[(4αS,5R)-1-(4-fluorophenyl)-5-hydroxy-4α-methyl-1,4,4α,5,6,7-hexahydrocyclopenta[f]indazol-5-yl]ethyl}phenyl)acetone]
The pKi of the first is 0.28 log units lower: 8.54 for the first, 8.82 for the second.

`C[C@]12Cc3cnn(-c4ccc(F)cc4)c3C=C1CC[C@@]2(O)CCc1ccc(F)cc1C(N)=O` [Example 159, 5-fluoro-2-{2-[(4αS,5R)-1-(4-fluorophenyl)-5-hydroxy-4α-methyl-1,4,4α,5,6,7-hexahydrocyclopenta[f]indazol-5-yl]ethyl}benzamide] and `C[C@]12Cc3cnn(-c4ccc(F)cc4)c3C=C1CC[C@@]2(O)CCc1ccc(Cl)cc1C(N)=O` [Example 170, 5-chloro-2-{2-[(4αS,5R)-1-(4-fluorophenyl)-5-hydroxy-4α-methyl-1,4,4α,5,6,7-hexahydrocyclopenta[f]indazol-5-yl]ethyl}benzamide] are within 0.2 log units of each other in pKi: 8.53 for the first, 8.67 for the second.

Compared with `C[C@]12Cc3cnn(-c4ccc(F)cc4)c3C=C1CC[C@@]2(O)/C=C/c1ccccc1S(N)(=O)=O` [Example 160, 2-{(E)-2-[(4αS,5R)-1-(4-fluorophenyl)-5-hydroxy-4α-methyl-1,4,4α,5,6,7-hexahydrocyclopenta[f]indazol-5-yl]vinyl}benzenesulfonamide], `CCC(O)(C(N)=O)c1ccccc1CC[C@]1(O)CCC2=Cc3c(cnn3-c3ccc(F)cc3)C[C@@]21C` (stereo partly drawn) [Example 199, 2-(2-{2-[(4αS,5R)-1-(4-fluorophenyl)-5-hydroxy-4α-methyl-1,4,4α,5,6,7-hexahydrocyclopenta[f]indazol-5-yl]ethyl}phenyl)-2-hydroxybutanamide] is 0.69 log units lower in pKi: 9.03 for the first, 8.34 for the second.

First: C[C@]12Cc3cnn(-c4ccc(F)cc4)c3C=C1CC[C@@]2(O)CCc1ccc(F)cc1C#N [Example 163, 5-fluoro-2-{2-[(4αS,5R)-1-(4-fluorophenyl)-5-hydroxy-4α-methyl-1,4,4α,5,6,7-hexahydrocyclopenta[f]indazol-5-yl]ethyl}benzonitrile]
Second: Cc1ccc(C(N)=O)c(CC[C@]2(O)CCC3=Cc4c(cnn4-c4ccc(F)cc4)C[C@@]32C)c1 [Example 174, 2-{2-[(4αS,5R)-1-(4-fluorophenyl)-5-hydroxy-4α-methyl-1,4,4α,5,6,7-hexahydrocyclopenta[f]indazol-5-yl]ethyl}-4-methylbenzamide]
The pKi of the first is 1.45 log units higher: 9.77 for the first, 8.32 for the second.

`C[C@]12Cc3cnn(-c4ccc(F)c(F)c4)c3C=C1CC[C@@]2(O)CCc1cccc(F)c1C(N)=O` [Example 168, 2-{2-[(4α,5R)-1-(3,4-difluorophenyl)-5-hydroxy-4α-methyl-1,4,4α,5,6,7-hexahydrocyclopenta[f]indazol-5-yl]ethyl}-6-fluorobenzamide] and `C[C@]12Cc3cnn(-c4ccc(Cl)cc4)c3C=C1CC[C@@]2(O)CCc1cccc(F)c1C(N)=O` [Example 185, 2-{2-[(4αS,5R)-1-(4-chlorophenyl)-5-hydroxy-4α-methyl-1,4,4α,5,6,7-hexahydrocyclopenta[f]indazol-5-yl]ethyl}-6-fluorobenzamide] are within 0.2 log units of each other in pKi: 8.67 for the first, 8.71 for the second.

Compared with `C[C@]12Cc3cnn(-c4ccc(F)c(F)c4)c3C=C1CC[C@@]2(O)CCc1ccccc1C(N)=O` [Example 172, 2-{2-[(4αS,5R)-1-(3,4-difluorophenyl)-5-hydroxy-4α-methyl-1,4,4α,5,6,7-hexahydrocyclopenta[f]indazol-5-yl]ethyl}benzamide], `Cc1cccc(CC[C@]2(O)CCC3=Cc4c(cnn4-c4cccc(F)c4)C[C@@]32C)c1C(N)=O` [Example 191, 2-{2-[(4αS,5R)-1-(3-fluorophenyl)-5-hydroxy-4α-methyl-1,4,4α,5,6,7-hexahydrocyclopenta[f]indazol-5-yl]ethyl}-6-methylbenzamide] is 0.42 log units higher in pKi: 8.18 for the first, 8.60 for the second.

`COc1cccc(CC[C@]2(O)CCC3=Cc4c(cnn4-c4ccc(F)cc4)C[C@@]32C)c1C(N)=O` [Example 189, 2-{2-[(4αS,5R)-1-(4-fluorophenyl)-5-hydroxy-4α-methyl-1,4,4α,5,6,7-hexahydrocyclopenta[f]indazol-5-yl]ethyl}-6-methoxybenzamide] and `C[C@]12Cc3cnn(-c4ccc(F)cc4)c3C=C1CC[C@@]2(O)CCc1cccc(F)c1CC(N)=O` [Example 194, 2-(2-fluoro-6-{2-[(4αS,5R)-1-(4-fluorophenyl)-5-hydroxy-4α-methyl-1,4,4α,5,6,7-hexahydrocyclopenta[f]indazol-5-yl]ethyl}phenyl)acetamide] are within 0.2 log units of each other in pKi: 8.81 for the first, 8.83 for the second.

Compared with `C[C@]12Cc3cnn(-c4ccc(F)cc4)c3C=C1CC[C@@]2(O)CCc1cccc(Cl)c1CC(N)=O` [Example 197, 2-(2-chloro-6-{2-[(4αS,5R)-1-(4-fluorophenyl)-5-hydroxy-4α-methyl-1,4,4α,5,6,7-hexahydrocyclopenta[f]indazol-5-yl]ethyl}phenyl)acetamide], `CC(C)C(O)(C(N)=O)c1ccccc1CC[C@]1(O)CCC2=Cc3c(cnn3-c3ccc(F)cc3)C[C@@]21C` (stereo partly drawn) [Example 201, 2-(2-{2-[(4αS,5R)-1-(4-fluorophenyl)-5-hydroxy-4α-methyl-1,4,4α,5,6,7-hexahydrocyclopenta[f]indazol-5-yl]ethyl}phenyl)-2-hydroxy-3-methylbutanamide] is 0.60 log units lower in pKi: 8.85 for the first, 8.25 for the second. The first binds more tightly here.

Source: US8119681B2, “2-[1-phenyl-5-hydroxy or methoxy-4alpha-methyl-hexahydrocyclopenta [ƒ]indazole-5-YL]ethyl phenyl derivatives as glucocorticoid receptor ligands” (Merck Sharp & Dohme Corp., priority 2006, dated 2012)
